Measured values as given in US20060141098A1, “Nutritional additive for animals” (Kemira Grow How AB, priority 2002, published 2006).

Key:
[1] = tested on: pigs; conditions: phosphorus digestibility, Veevoedertabel 2000; cited from earlier work
[2] = Calcium solubility in water (ICP); assay type: physicochemical; conditions: tricalcium phosphate experiment, absolute content
Procedure: (§1) At room temperature, 3 g sample and 300 ml distilled water have been agitated for 30 min. Subsequently the solution has been diluted to 500 ml and stirred. Then the solution has been filtered to remove the remaining solids. The Ca^2+ content of the solution was determined flame photometrically by means of ICP, and the amount of dissolved phosphorus was determined by the Quimociac method. These two methods are well known in the technical field.

[3] = Phosphorus solubility in water (Quimociac method); assay type: physicochemical; conditions: tricalcium phosphate experiment, absolute content
Procedure: as §1

Compound | Dig. Coeff. for pigs Average [1] | % Ca water sol. [2] | % P water sol. [3]
Dicalcium phosphate, dihydrate | 0.70 |  | 
hydroxyl apatite [Hydroxyl apatite (ref)] |  | <0.1% | <0.1%
O=P([O-])([O-])O.[Ca+2] [Dicalcium phosphate, anhydrate] | 0.64 |  | 
